Results on eleven compounds are retold here after patent publication US20220296595A1, “CDK INHIBITORS” (QILU REGOR THERAPEUTICS INC., priority 2019, published 2022).

For one test, the target named is T1, CDK2/CyclinE1 (Homo sapiens, UniProt P24941).
T1 construct: purchased SignalChem C29-18G
Kind of test: Assay for inhibition of CDK2/CyclinE1 (Caliper microfluidic kinase assay). Type of test: biochemical. The following applies: CDK2/CyclinE1, 100 μM ATP; read-out: CDK2 IC50. The procedure, abridged: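 Caliper microfluidic mobility-shift assay: 5 nM CDK2/CyclinE1, 100 μM ATP, 5 μM FL-18 peptide (5-FAM-QSPKKG-NH2) in pH 7.5 HEPES buffer with MgCl2, DTT, BSA, Triton X-100. Incubated 3 hours at room temperature, EDTA-stopped; IC50 from 4-parameter sigmoidal fit.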

Another test has as its target T2, CDK4/CyclinD1 (Homo sapiens, UniProt P11802).
T2 construct: purchased Thermofisher PR8064A
Kind of test: Assay for inhibition of CDK4/CyclinD1 (Caliper microfluidic kinase assay). The format is biochemical. The following applies: CDK4/CyclinD1, 200 μM ATP. The procedure, abridged: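 Caliper microfluidic mobility-shift assay tracking phosphorylation of 1 μM FL-34 peptide by 1 nM CDK4/CyclinD1 with 200 μM ATP in HEPES pH 7.5 buffer with 10 mM MgCl2. Reaction ran 3 h at room temperature, was stopped with EDTA, and IC50 came from a 4-parameter sigmoidal fit.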

Test [1] relates to phosphorylation of Retinoblastoma Protein (pRb Ser807/811 or Ser780) in T47D cells. As to the kind of experiment: Inhibition of phosphorylation of retinoblastoma protein (pRb) in T47D cell (ELISA). Conditions: Homo sapiens, T47D, read-out: Phospho T47D Ser807 IC50, pRb Ser807 phosphorylation, T47D cells. The format is cell-based, human. The method in brief: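 T47D cells in RPMI 1640 + 10% FBS, adhered overnight, then treated 24 h with 3-fold compound titrations (top concentration […]). Lysates assayed by sandwich ELISA for pRb Ser807/811 or Ser780 with HRP/TMB detection. IC50 from 4-parameter sigmoidal fit.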
In general terms: In an ELISA, binding on a coated surface is turned into a signal by an enzyme label.

A further test deals with T47D breast cancer cells. As to the kind of experiment: Anti-proliferation assay in T47D cell (Cyquant, day 6). Type of test: cell-based, human. The following applies: Homo sapiens, T47D, anti-proliferation, T47D cells; read-out: T47D IC50. The procedure, abridged:
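Cells were grown in RPMI 1640 with 10% FBS at 37 °C and dosed the day after plating at ten concentrations, 10 μM to 0.51 nM in 3-fold steps. CyQuant fluorescence (ex 485/em 535 nm) was read on day 6. IC50 was fitted from baseline-subtracted viability curves, with the baseline read after overnight culture.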

In a further test the target is T3, CDK6/CyclinD3 (Homo sapiens, UniProt Q00534).
T3 construct: purchased Carna 04-107
T3 sequence (Q00534 whole entry): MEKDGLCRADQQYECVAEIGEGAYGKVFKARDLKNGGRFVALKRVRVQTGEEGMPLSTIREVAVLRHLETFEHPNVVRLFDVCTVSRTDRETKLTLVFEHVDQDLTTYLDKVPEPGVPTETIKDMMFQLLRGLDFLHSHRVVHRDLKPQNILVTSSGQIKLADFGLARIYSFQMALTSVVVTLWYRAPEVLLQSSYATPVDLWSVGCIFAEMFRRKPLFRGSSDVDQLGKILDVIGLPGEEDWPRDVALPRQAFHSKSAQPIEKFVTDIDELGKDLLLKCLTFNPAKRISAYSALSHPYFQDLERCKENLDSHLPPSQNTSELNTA
T3 sequence (P30281 whole entry partner): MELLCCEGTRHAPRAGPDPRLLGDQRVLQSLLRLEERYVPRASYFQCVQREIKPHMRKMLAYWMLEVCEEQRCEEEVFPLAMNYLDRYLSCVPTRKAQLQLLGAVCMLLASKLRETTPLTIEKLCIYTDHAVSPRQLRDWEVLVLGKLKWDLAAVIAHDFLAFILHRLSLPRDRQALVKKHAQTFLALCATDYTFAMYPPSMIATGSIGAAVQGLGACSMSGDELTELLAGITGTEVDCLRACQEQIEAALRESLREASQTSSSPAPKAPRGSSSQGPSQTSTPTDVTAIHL
As to the kind of experiment: Assay for inhibition of CDK6/CyclinD3 (Caliper microfluidic kinase assay). Type of test: biochemical. Conditions: CDK6/CyclinD3, 300 μM ATP. The method in brief:
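Caliper mobility-shift readout of FAM-labelled peptide (FL-34, 1 μM) phosphorylation by 2 nM CDK6/CyclinD3 at 300 μM ATP in HEPES pH 7.5 buffer with MgCl2, DTT; 3 h at room temperature, EDTA stop. IC50 from 4-parameter sigmoidal fit.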

T2 sequence (P11802 whole entry): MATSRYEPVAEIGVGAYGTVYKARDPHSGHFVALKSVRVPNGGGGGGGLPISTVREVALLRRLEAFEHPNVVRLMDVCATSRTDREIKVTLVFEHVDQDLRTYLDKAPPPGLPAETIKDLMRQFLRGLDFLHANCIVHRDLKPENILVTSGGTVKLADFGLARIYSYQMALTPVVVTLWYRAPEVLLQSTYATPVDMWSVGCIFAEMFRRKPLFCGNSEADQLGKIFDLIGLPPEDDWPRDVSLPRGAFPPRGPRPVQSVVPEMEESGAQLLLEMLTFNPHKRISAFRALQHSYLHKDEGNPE
T2 sequence (P24385 whole entry partner): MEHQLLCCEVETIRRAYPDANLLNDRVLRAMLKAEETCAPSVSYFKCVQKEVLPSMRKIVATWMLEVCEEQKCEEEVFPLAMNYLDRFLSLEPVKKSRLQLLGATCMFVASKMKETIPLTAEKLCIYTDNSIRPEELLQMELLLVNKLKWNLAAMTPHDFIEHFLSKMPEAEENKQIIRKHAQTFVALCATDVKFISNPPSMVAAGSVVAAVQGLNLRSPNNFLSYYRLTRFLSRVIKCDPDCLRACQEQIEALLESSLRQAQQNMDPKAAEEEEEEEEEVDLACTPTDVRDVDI

On to `CC(C)c1cnn2ccc(-c3ccnc(Nc4ccc(N5CCN(S(C)(=O)=O)CCC5=O)cn4)n3)cc12` [compound 236], for which the IC50 at CDK2/CyclinE1 is 10 to 100 nM; at CDK4/CyclinD1, below 10 nM; in test [1], below 100 nM; in the test on T47D breast cancer cells, below 100 nM; against CDK6/CyclinD3 it was below 10 nM.
As for `CC(C)c1cnn2ccc(-c3ccnc(Nc4ccc(N5CCN(CCO)CC5=O)cn4)n3)cc12` [compound 237], the IC50 on CDK2/CyclinE1 was 10 to 100 nM; at CDK4/CyclinD1, below 10 nM; in test [1] it was below 100 nM; in the test on T47D breast cancer cells, below 100 nM; against CDK6/CyclinD3, 10 to 100 nM.
On to `CC(C)n1cnc2c1CN(c1ccnc(Nc3ccc(N4CCCNC4=O)cn3)n1)CC2` [compound 242], for which the 50% inhibitory concentration (IC50) at CDK2/CyclinE1 was 100 to 1000 nM; against CDK4/CyclinD1, below 10 nM; in test [1] it was below 100 nM; with T47D breast cancer cells it was 500 to 1000 nM; against CDK6/CyclinD3, 10 to 100 nM.
Regarding `CC(C)n1cnc2c1CN(c1ccnc(Nc3ccc(N4CCC(C)(N)CC4=O)cn3)n1)CC2` (stereo not shown) [compound 244], the IC50 on CDK2/CyclinE1 was 10 to 100 nM; on CDK4/CyclinD1, below 10 nM; in test [1], 500 to 1000 nM; in the test with T47D breast cancer cells, 500 to 1000 nM; on CDK6/CyclinD3, 100 to 1000 nM.
In the case of `CC(C)n1cnc2c1CN(c1ccnc(Nc3ccc(N4CCC(N(C)C)CC4=O)cn3)n1)CC2` (stereo not shown) [compound 245], the IC50 at CDK2/CyclinE1 was 10 to 100 nM; at CDK4/CyclinD1, below 10 nM; in test [1], 100 to 500 nM; in the test with T47D breast cancer cells, 500 to 1000 nM; against CDK6/CyclinD3, 100 to 1000 nM.
Taken in the same sequence, the figures for `CC1(N)CCN(c2ccc(Nc3nccc(-c4cc(F)c5c(c4)C(C)(C)CO5)n3)nc2)C(=O)C1` (stereo not shown) [compound 258] were 10 to 100 nM, below 10 nM, below 100 nM, below 100 nM and 10 to 100 nM.
As for `CN(C)C1CCN(c2ccc(Nc3nccc(-c4cc(F)c5c(c4)C(C)(C)CO5)n3)nc2)C(=O)C1` (stereo not shown) [compound 259], the concentration for half-maximal inhibition (IC50) on CDK2/CyclinE1 was 10 to 100 nM; on CDK4/CyclinD1, below 10 nM; in test [1], below 100 nM; in the test with T47D breast cancer cells it was below 100 nM; against CDK6/CyclinD3, 10 to 100 nM.
For the compound `CC(C)n1cnc2c(F)nc(-c3ccnc(Nc4ccc(N5CCC(N(C)C)CC5=O)cn4)n3)cc21` (stereo not shown) [compound 270], the IC50 on CDK2/CyclinE1 is 10 to 100 nM; on CDK4/CyclinD1 it was below 10 nM; in test [1], below 100 nM; in the test with T47D breast cancer cells, below 100 nM; at CDK6/CyclinD3 it was below 10 nM.
Consider `CC(C)n1cnc2c(F)nc(-c3ccnc(Nc4ccc(N5CC6CC5CN6)cn4)n3)cc21` (stereo not shown) [compound 272], for which the IC50 on CDK2/CyclinE1 was 100 to 1000 nM; against CDK4/CyclinD1, below 10 nM; in test [1], below 100 nM; with T47D breast cancer cells, below 100 nM; at CDK6/CyclinD3 it was 10 to 100 nM.
Consider `CC(C)n1cnc2c(F)nc(-c3ccnc(Nc4ccc(N5CCNCC5=O)cn4)n3)cc21` [compound 273], for which the IC50 on CDK2/CyclinE1 is 10 to 100 nM; against CDK4/CyclinD1, below 10 nM; in test [1], below 100 nM; in the test with T47D breast cancer cells, below 100 nM; at CDK6/CyclinD3, 10 to 100 nM.
For `Cc1nc2c(F)nc(-c3ccnc(Nc4ccc(N5CCNCC5=O)cn4)n3)cc2n1C(C)C` [compound 276], the IC50 on CDK2/CyclinE1 is 10 to 100 nM; against CDK4/CyclinD1 it was below 10 nM; in test [1], below 100 nM; in the test on T47D breast cancer cells, below 100 nM; against CDK6/CyclinD3 it was below 10 nM.

The term IC50 denotes the midpoint of a concentration-inhibition curve.
